Source: patent US12692259B2, “Morpholine-containing and piperazine-containing CXCR4 modulators and uses related thereto” (Emory University, priority 2021, dated 2026)

How the values were obtained:
CXCR4 = CXCR4 (Homo sapiens, UniProt P61073); experiment: Calcium flux assay (antagonist mode, SDF-1α challenge); assay type: cell-based; set-up: Eurofins or Bristol Myers Squibb (contract assay); details: read-out: CXCR4 Ca^+2 Flux IC50
Description: Calcium flux assay was performed by Eurofins or Bristol Myers Squibb. The method used by Eurofins is described below.
Compound plate preparation: Vehicle controls and positive controls were prepared to ensure all assays were properly controlled. All wells were prepared using the Eurofins Discovery Services GPCRProfiler® Assay Buffer. The GPCRProfiler® Assay Buffer was a modified Hanks Balanced Salt Solution (HBSS) where HBSS was supplemented to contain 20 mM HEPES and 2.5 mM Probenecid at pH 7.4.
Agonist assay (first addition): Compound(s) supplied were plated in duplicate for each concentration assayed. During the agonist assay, the concentration(s) reflects accommodation for the dilution of compound during the antagonist assay. Please see below for further details. […] The reference agonist for each GPCR was included at Emax (the concentration where the reference agonist elicited a maximal response). The agonist assay was conducted on a FLIPR^TETRA instrument where the test compound(s), vehicle controls, and reference agonist were added to the assay plate after a fluorescence/luminescence baseline was established. The agonist assay was a total of 180 seconds and was used to assess each compound's ability to activate each GPCR assayed. Upon completion of the three minute agonist assay, the assay plate was incubated at 25° C. for a further two minutes. After the incubation period the antagonist assay was initiated.
The antagonist assay was conducted using the same assay plate that was used for the agonist assay. The antagonist assay was conducted on a FLIPR^TETRA instrument where vehicle controls and challenge concentration of reference agonist were added to appropriate wells. The antagonist assay was a total of 180 seconds and was used to assess each compound's ability to inhibit each GPCR assayed.
Data Processing—All plates were subjected to appropriate baseline corrections. Once baseline corrections were processed, maximum fluorescence/luminescence values were exported, and data manipulated to calculate percentage activation and percentage inhibition. […] Data manipulation calculation is as followed: ((Max RLU)−(Baseline Avg.))/((Positive Avg.)−(Baseline Avg.)).

CYP3A4 = molecular target: T1, CYP3A4 (Homo sapiens, UniProt P08684); experiment: Fluorometric CYP450 inhibition assay, CYP3A4; assay type: in vitro ADME; details: read-out: CYP450 IC50 (μM) 3A4
T1 construct: purchased Corning; host or cells: insect cells (microsomes)
T1 sequence (P08684 whole entry): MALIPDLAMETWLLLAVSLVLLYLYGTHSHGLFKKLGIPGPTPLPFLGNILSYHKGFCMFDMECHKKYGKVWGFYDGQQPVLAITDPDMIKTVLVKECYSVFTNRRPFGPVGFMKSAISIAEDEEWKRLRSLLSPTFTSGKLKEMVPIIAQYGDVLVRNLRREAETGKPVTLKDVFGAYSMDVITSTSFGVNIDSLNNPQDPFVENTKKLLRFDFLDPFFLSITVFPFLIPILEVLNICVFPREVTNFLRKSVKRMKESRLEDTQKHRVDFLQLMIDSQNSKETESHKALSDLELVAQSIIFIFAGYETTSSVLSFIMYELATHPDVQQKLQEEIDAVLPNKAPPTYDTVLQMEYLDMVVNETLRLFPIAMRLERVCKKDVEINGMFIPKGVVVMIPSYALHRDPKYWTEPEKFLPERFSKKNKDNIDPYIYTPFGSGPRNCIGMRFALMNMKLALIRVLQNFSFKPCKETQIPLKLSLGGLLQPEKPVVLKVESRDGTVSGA
Description: (§1) The CYP450 inhibition assays utilized microsomes from insect cells expressing human recombinant individual cDNA-expressed CYP isoforms 3A4 and 2D6, as well as the fluorogenic probe that produces fluorescent metabolite. Standard inhibitors were co-incubated with fluorogenic substrates and their inhibitory potential (IC50) was determined. Assay conditions in terms of CYP450 protein concentration and time of incubation were standardized, enzyme kinetics parameters of each fluorescent probe substrate were estimated and IC50 values of inhibitors were determined and validated on different days to check reproducibility.
(§2) A 100 mM sodium phosphate buffer was prepared and adjusted to pH 7.4. In a separate falcon tube, a 2× enzyme/substrate (E/S) solution was prepared in phosphate buffer. The final concentration of CYP2D6 (CORNING®) and 7-amido-4-methyl coumaric acid (AMMC) was 10 nM and 4 μM, and CYP3A4 (CORNING®) and 7-benzyloxy-4-(trifluoromethyl) coumarin (BFC) was 20 nM and 40 μM, respectively. In a separate falcon tube, a 2×NADPH regenerating system (NRS) was prepared in phosphate buffer.
(§3) Both enzymatic assays were conducted in a 96-well microtiter plate (Black, CORNING® COSTAR®) with a final volume of 100 μL. Preparation of the plate began with the addition of 74 μL of the E/S in the first well, and 50 μL to all subsequent wells (from 2-11). […] A 1:3 serial dilution of the test compound was conducted by removing 25 μL from the first well and diluting it with the second and so forth until the tenth row. Final concentrations yielded a range from 200 μM-0.01 μM. Well no. 11 contained no inhibitor, and well no. 12 contained no enzyme. Both were used as controls for background fluorescence. The plate was incubated for 30 min at 37° C. After incubation, the reaction was initiated by the addition of 50 μL of the 2×NRS to each well.
(§4) Immediately (within 1 min) the fluorescence was measured using a microplate reader (BIOTEK® Synergy Neo2). […] Data was exported and analyzed using Graph Pad Prism 7. […] The IC50 value was derived after the data was fitted on a 10-point curve using a four-parameter logistic regression model.

PAMPA assay = assay type: in vitro ADME; details: pH 7.4
Description: PAMPA assay was performed by BioAssay Systems Services or Bristol Myers Squibb. The method used by BioAssay Systems Services is described below.
Stock solutions in DMSO for all compounds (10 mM) were thawed. The assay was performed in duplicate by following the PAMPA-096 procedure for sample plating. 4% Lecithin in dodecane solution was prepared by resuspending the dried lecithin with 750 μL dodecane. PBS pH 7.4 was used as the diluent. Two sets of plates and equilibrium solutions were incubated for 4 hours at room temperature. Acceptor and equilibrium solutions were analyzed in a UV plate. OD280 nm was used for High Permeability Control (chloramphenicol). OD270 nm was used for Medium Permeability Control (diclofenac) and Low Permeability Control (theophylline). OD254 nm was used for the test compounds.
Data analysis was performed by using the peak absorbance for each respective test compound and Permeability Control to determine the Permeability Rate (Pe) via the following equation: […]
where ODA is the absorbance of Acceptor Solution, ODE is the absorbance of the Equilibrium Standard, and C is determined by the equation below: […]
where Donor Volume (VD) is 0.2 cm^3, Acceptor Volume (VA) is 0.3 cm^3, and Membrane Area (Area) is 0.24 cm^2.

CYP2D6 = molecular target: T2, CYP2D6 (Homo sapiens, UniProt P10635); experiment: Fluorometric CYP450 inhibition assay, CYP2D6; assay type: in vitro ADME; details: read-out: CYP450 IC50 (μM) 2D6
T2 construct: purchased Corning; host or cells: insect cells (microsomes)
T2 sequence (P10635 whole entry): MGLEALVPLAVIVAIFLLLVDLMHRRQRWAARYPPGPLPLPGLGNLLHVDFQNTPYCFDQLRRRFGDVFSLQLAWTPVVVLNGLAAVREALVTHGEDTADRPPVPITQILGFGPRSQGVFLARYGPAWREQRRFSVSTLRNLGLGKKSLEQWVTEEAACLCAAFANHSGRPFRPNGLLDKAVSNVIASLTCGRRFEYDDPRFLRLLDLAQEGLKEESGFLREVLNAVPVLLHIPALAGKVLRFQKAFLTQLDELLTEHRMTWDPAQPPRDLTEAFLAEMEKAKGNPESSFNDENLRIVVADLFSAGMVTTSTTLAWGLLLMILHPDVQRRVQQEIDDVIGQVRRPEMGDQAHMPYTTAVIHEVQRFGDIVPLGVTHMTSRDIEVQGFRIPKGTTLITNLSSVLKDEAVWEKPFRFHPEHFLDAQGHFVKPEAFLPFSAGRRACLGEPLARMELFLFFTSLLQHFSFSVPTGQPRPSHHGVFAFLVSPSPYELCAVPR
Description: as §1, §2, §3, §4

CXCR4, sequence (P61073 whole entry): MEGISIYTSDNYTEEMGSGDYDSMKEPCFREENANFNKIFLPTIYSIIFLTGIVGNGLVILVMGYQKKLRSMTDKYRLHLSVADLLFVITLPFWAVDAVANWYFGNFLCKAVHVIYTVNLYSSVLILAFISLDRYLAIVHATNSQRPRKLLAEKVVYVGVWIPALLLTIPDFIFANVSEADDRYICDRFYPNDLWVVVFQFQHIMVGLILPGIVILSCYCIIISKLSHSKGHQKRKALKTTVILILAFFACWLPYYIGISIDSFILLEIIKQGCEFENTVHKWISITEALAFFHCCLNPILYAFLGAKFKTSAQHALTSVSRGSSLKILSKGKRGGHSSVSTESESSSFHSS

Row | SMILES | IC50 (CXCR4) | IC50 (CYP3A4) | Papp at 4 h (PAMPA assay) | IC50 (CYP2D6)
1 | CN(C[C@H]1Cc2c(cccc2N2CCNC(=O)C2)CN1)[C@H]1CCCc2cccnc21 [EMU-254, 4-((R)-3-((methyl((S)-5,6,7,8-tetrahydroquinolin-8-yl)amino)methyl)-1,2,3,4-tetrahydroisoquinolin-5-yl)piperazin-2-one] | 0.052 µM | 14.3 µM | 11.8 ×10⁻⁶ cm/s | 8.1 µM
2 | CN1CCN(c2cccc3c2C[C@@H](CN(C)[C@H]2CCCc4cccnc42)NC3)C(=O)C1 [EMU-251, 4-methyl-1-((S)-3-((methyl((S)-5,6,7,8-tetrahydroquinolin-8-yl)amino)methyl)-1,2,3,4-tetrahydroisoquinolin-5-yl)piperazin-2-one] | 0.205 µM | 48.4 µM | 14.6 ×10⁻⁶ cm/s | > 50 µM
3 | CCOC(=O)N1CCN(c2cccc3c2C[C@H](CN(C)[C@H]2CCCc4cccnc42)NC3)CC1 [EMU-261, ethyl 4-((R)-3-((methyl((S)-5,6,7,8-tetrahydroquinolin-8-yl)amino)methyl)-1,2,3,4-tetrahydroisoquinolin-5-yl)piperazine-1-carboxylate] | 0.99 µM | 7.82 µM | 14.6 ×10⁻⁶ cm/s | 4.47 µM
4 | CN1CCN(c2cccc3c2C[C@H](CN(C)[C@H]2CCCc4cccnc42)NC3)CC1=O [EMU-255, 1-methyl-4-((R)-3-((methyl((S)-5,6,7,8-tetrahydroquinolin-8-yl)amino)methyl)-1,2,3,4-tetrahydroisoquinolin-5-yl)piperazin-2-one] | 0.224 µM | 13.7 µM | 13.6 ×10⁻⁶ cm/s | 43.1 µM

Further lines, results first:

Row | IC50 (CXCR4) | IC50 (CYP3A4) | Papp at 4 h (PAMPA assay) | IC50 (CYP2D6) | SMILES
5 | 0.056 µM | 16.3 µM | 14.6 ×10⁻⁶ cm/s | > 50 µM | CC(=O)N1CCN(c2cccc3c2C[C@H](CN(C)[C@H]2CCCc4cccnc42)NC3)CC1 [EMU-262, 1-(4-((R)-3-((methyl((S)-5,6,7,8-tetrahydroquinolin-8-yl)amino)methyl)-1,2,3,4-tetrahydroisoquinolin-5-yl)piperazin-1-yl)ethan-1-one]
6 | 0.312 µM | 24.1 µM | 13.4 ×10⁻⁶ cm/s | 34.4 µM | CN(C[C@H]1Cc2c(cccc2N2CCN(S(C)(=O)=O)CC2)CN1)[C@H]1CCCc2cccnc21 [EMU-263, (S)—N-methyl-N—(((R)-5-(4-(methylsulfonyl)piperazin-1-yl)-1,2,3,4-tetrahydroisoquinolin-3-yl)methyl)-5,6,7,8-tetrahydroquinolin-8-amine]
7 | 0.031 µM | 3.5 µM | 10.6 ×10⁻⁶ cm/s | > 20 µM | CN(C[C@H]1Cc2c(cccc2N2CC3COC2C3)CN1)[C@H]1CCCc2cccnc21 (stereo in doubt) [EMU-324, (S)—N—(((R)-5-((1S,4R)-2-oxa-6-azabicyclo[2.2.1]heptan-6-yl)-1,2,3,4-tetrahydroisoquinolin-3-yl)methyl)-N-methyl-5,6,7,8-tetrahydroquinolin-8-amine]
8 | 0.013 µM | 3.2 µM | 16.7 ×10⁻⁶ cm/s |  | CN1CCN(c2cccc3c2CC(CN(C)[C@H]2CCOc4cccnc42)NC3)CC1 (stereo partly drawn) [EMU-320, (4S)—N-methyl-N-((5-(4-methylpiperazin-1-yl)-1,2,3,4-tetrahydroisoquinolin-3-yl)methyl)-3,4-dihydro-2H-pyrano[3,2-b]pyridin-4-amine]
9 | 0.0044 µM | > 20 µM |  | 4.1 µM | CN(C[C@H]1Cc2c(cccc2N2CCN3CCOC[C@H]3C2)CN1)[C@H]1CCCc2cccnc21 [EMU-343, (S)—N—(((R)-5-((R)-hexahydropyrazino[2,1-c][1,4]oxazin-8(1H)-yl)-1,2,3,4-tetrahydroisoquinolin-3-yl)methyl)-N-methyl-5,6,7,8-tetrahydroquinolin-8-amine]
